For test [1], the system named is rat and human malignant cells studied, as well as normal cells. The test is described as follows: Cell proliferation assay (WST-1, OD 450 nm), all cell lines. The test is classed as cell-based. To be noted: data not shown. As for the experimental part: Primary cell lines were prepared from human gliomas (glioblastoma multiforme [GBM] or astrocytoma) or established rat glioma cell lines (RG2, C6 and 9L) were used. Cultured human normal cell lines, brain microvessel endothelial cells (HBMVEC), or fetal astrocytes were used.
Cells (5×10^4 cells) were cultured in each well of 96-well microtiter culture plates and were allowed to achieve confluency to form a monolayer of cells in each well. For dose response studies cells were incubated with different concentrations (1–100 μg/mL) of NS-1619 or minoxidil sulfate for 4 hours at 37° C. in a CO2 (5%) incubator. Cells washed twice carefully with respective medium, and allowed to incubate overnight at 37° C. under 5% CO2. The following day, cells were incubated with WST-1 reagent (Boehringer Mannheim) at 37° C. in a CO2 (5%) incubator for 60–90 minutes, and optical density at 450 nm was measured with a 96-well plate reader. The magnitude of OD indicated the number of viable cells, greater the OD, higher the number of viable cells, correlated a standard curve of cell numbers.

For test [2], the system named is PTK activity in RG2 cell lysate. The test is described as follows: Protein tyrosine kinase (PTK) assay. Format: biochemical, rat. To be noted: 1–50 μM (FIG. 10). The protocol:
A PTK assay kit (The Oncogene Research Products, Boston, Mass.) was used to determine the presence and relative amounts of protein kinase activity in tissue cytosols and cell extracts. Briefly, 1×10^4 RG2 cells seeded in a 50-mL culture flask, and allowed to achieve confluency to form a monolayer at 37° C. in a CO2 incubator.
Briefly, RG2 cells were harvested after trypsinization, and cells were pelleted by centrifugation. Cells were resuspended with extraction buffer (20 mM Tris, pH 7.4, 50 mM NaCl, 1 mM EDTA, 1 mM EGTA, 0.2 mM PMSF, 1 μg/mL pepstatin, 0.5 μg/mL leupetin, 0.2 mM Na3VO4, 5 mM mercaptoethanol, 0.1% Triton X-100), and cells were lysed using a cell homogenizer. After centrifugation, supernatant was separated from the pellet for PTK assay. The supernatant was treated with superoxide dismutase. Pervanadate (100 mM) was used in the PTK assay to inhibit […] activity, and protein concentration was determined by Lowry's method using a Bio-Rad protein assay kit. […]
Assay for PTK activity in RG2 cell-lysates was then performed according to the protocol supplied by the PTK assay kit's manufacturer. After adding the stop solution, absorbance measured in each well at 450 nm using a Spectramax Plus (Molecular Devices, Sunnyvale, Calif.).

SMILES strings stand for the structures. Structures can show the parent of a compound that is named as a salt.

On to `Nc1cc(N2CCCCC2)nc(N)[n+]1OS(=O)(=O)[O-]` [minoxidil sulfate], for which the “sensitivity (cell proliferation)” value in test [1] is listed as “insensitive”.

`CC(C)[C@@H]1NC(=O)[C@H](C)OC(=O)[C@@H](C(C)C)NC(=O)[C@@H](C(C)C)OC(=O)[C@H](C(C)C)NC(=O)[C@H](C)OC(=O)[C@@H](C(C)C)NC(=O)[C@@H](C(C)C)OC(=O)[C@H](C(C)C)NC(=O)[C@H](C)OC(=O)[C@@H](C(C)C)NC(=O)[C@@H](C(C)C)OC1=O` [Valinomycin]: the PTK activity entry in test [2] is on record as “inhibited PTK activity in RG2 cell lysate in a dose-dependent manner”.

These data come from US7211561B2, “Method for inducing selective cell death of malignant cells by activation of calcium-activated potassium channels (KCa)” (Cedars-Sinai Medical Center, priority 2001, dated 2007).
